SMILES strings stand for the structures. Structures can show the parent of a compound that is named as a salt. A value given as a limit tells only on which side of the number the result lay.

T1 sequence (Q9Y233 whole entry): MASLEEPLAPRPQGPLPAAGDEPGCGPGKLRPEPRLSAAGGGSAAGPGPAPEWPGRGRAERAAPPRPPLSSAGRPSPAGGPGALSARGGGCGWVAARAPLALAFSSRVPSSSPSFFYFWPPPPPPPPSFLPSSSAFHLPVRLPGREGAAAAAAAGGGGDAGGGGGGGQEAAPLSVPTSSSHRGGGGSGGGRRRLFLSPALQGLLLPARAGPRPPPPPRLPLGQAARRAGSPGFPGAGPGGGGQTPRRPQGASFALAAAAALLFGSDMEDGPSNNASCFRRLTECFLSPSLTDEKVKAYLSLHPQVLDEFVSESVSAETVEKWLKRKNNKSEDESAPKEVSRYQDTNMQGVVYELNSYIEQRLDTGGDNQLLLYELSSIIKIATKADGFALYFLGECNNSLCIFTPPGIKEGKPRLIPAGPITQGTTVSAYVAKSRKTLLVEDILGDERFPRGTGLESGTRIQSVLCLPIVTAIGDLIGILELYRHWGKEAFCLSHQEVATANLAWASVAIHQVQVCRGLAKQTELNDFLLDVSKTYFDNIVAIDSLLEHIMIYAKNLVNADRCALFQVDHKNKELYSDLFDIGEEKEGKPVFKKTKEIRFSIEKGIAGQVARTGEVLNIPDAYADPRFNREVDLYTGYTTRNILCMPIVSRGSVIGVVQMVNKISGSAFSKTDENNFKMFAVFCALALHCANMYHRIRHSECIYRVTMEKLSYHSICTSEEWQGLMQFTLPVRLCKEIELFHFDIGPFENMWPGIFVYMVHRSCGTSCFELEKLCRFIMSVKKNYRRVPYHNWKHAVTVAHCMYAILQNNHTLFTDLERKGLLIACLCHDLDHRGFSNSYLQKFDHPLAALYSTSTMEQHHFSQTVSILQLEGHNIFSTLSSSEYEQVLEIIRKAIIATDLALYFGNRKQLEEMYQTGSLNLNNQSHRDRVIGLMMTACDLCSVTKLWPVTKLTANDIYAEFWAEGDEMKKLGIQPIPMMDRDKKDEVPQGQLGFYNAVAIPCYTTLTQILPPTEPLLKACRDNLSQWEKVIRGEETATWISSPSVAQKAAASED

This experiment addresses T1, PDE10A (human) (Homo sapiens, UniProt Q9Y233).
T1 construct: purchased BPS Bioscience
In words: Measurement of PDE activity (HTRF cAMP kit), human PDE10A. Particulars: PDE enzymatic reaction, substrate 20 nM for PDE10, 60 minutes at 29 C. It counts as biochemical. On the procedure:
The recombinant PDE proteins are used in in vitro enzymatic reaction for measurement of PDE activity. These recombinant proteins, including PDE10A (human, rat and mouse PDE10) and isoforms of PDEs 1, 3, 4, and 5, were purchased from commercial vendor BPS Bioscience. The enzymatic activity of PDEs was determined by cAMP measurement kit from CisBio (IBA) using HTRF technology.
The PDE enzymatic reaction was carried out in assay buffer (20 mM Tris-HCl pH7.5, 10 mM MgCl2, 0.1% bovine serum albumin) containing enzyme and substrate. The PDE enzymes concentration ranged from 10 pM-250 pM, depending on each enzyme's specific activity. The substrate cyclic nucleotide (cAMP or cGMP) concentration used in the assay was 20 nM for PDE10, and 100 nM for other PDEs. The inhibitory effect of compound was determined by incubating various concentration of inhibitor in the enzymatic assay. Typically, compound was serial diluted in DMSO then further diluted in assay buffer. Next, the compound at varying concentration was mixed with PDE enzyme. The reaction was initiated by addition of cyclic nucleotide substrate, and incubated for 60 minutes at 29 C. The reaction was stopped by addition of lysis buffer from assay kit. The cAMP-d2 and anti-cAMP cryptate in the lysis buffer detected the level of cAMP left from the PDE hydrolysis reaction. The PDE activity is reversely correlated with the amount of cAMP left in the reaction and can be converted to the percent activity of an uninhibited control (100%). Thus, IC50 value of inhibitor can be obtained by plotting inhibitor concentration against PDE activity at that concentration.
`COc1cc(-c2cccc3c2CN(CCc2ccc4ccccc4n2)C3=O)ccn1` [Example 344, 4-(2-Methoxy-pyridin-4-yl)-2-(2-quinolin-2-yl-ethyl)-2,3-dihydro-isoindol-1-one] had an IC50 of 100 to 200 nM. Take `O=C1c2c(cccc2-c2ccn[nH]2)CN1CCc1ccc2sccc2n1` [Example 560, 7-(1H-Pyrazol-5-yl)-2-(2-thieno[3,2-b]pyridin-5-ylethyl)isoindolin-1-one]: the IC50 was in the range of 100 to 200 nM.

For the compound `O=C1c2c(NC3COC3)ccc(F)c2CN1CCc1ccc2ccccc2n1` [compound 437, 4-Fluoro-7-(oxetan-3-ylamino)-2-[2-(2-quinolyl)ethyl]isoindolin-1-one], the IC50 is < 100 nM. As to `O=C1c2c(cccc2-c2ccc(F)cc2F)CN1CCc1ccc2ccccc2n1` [Example 45, 7-(2,4-Difluoro-phenyl)-2-(2-quinolin-2-yl-ethyl)-2,3-dihydro-isoindol-1-one], the IC50 fell in the range of 100 to 200 nM.

In the case of `O=C1c2c(cccc2-c2ccncc2F)CN1CCc1ccc2ccccc2n1` [Example 173, 7-(3-Fluoro-pyridin-4-yl)-2-(2-quinolin-2-yl-ethyl)-2,3-dihydro-isoindol-1-one], the IC50 was < 100 nM. With `CNCOc1ccc(-c2ccncc2)c2c1CN(CCc1ccc3ccccc3n1)C2=O` [Example 276, 4-Methylaminomethoxy-7-pyridin-4-yl-2-(2-quinolin-2-yl-ethyl)-2,3-dihydro-isoindol-1-one] the figure was < 100 nM; with `O=C1c2c(-c3ccsc3)ccnc2CN1CCc1cn2ccccc2n1` [compound 523, 6-(2-Imidazo[1,2-a]pyridin-2-ylethyl)-4-(3-thienyl)-7H-pyrrolo[3,4-b]pyridin-5-one], < 100 nM. With `O=C1c2c(cccc2-c2ccncc2)CN1CC(F)(F)c1ccc2ccccc2n1` [Example 13, 2-(2,2-Difluoro-2-quinolin-2-yl-ethyl)-7-pyridin-4-yl-2,3-dihydro-isoindol-1-one], the IC50 was < 100 nM.

In the case of `Cn1nccc1-c1cccc2c1C(=O)N(CCc1ccc3ccccc3n1)C2` [Example 74, 7-(2-Methyl-2H-pyrazol-3-yl)-2-(2-quinolin-2-yl-ethyl)-2,3-dihydro-isoindol-1-one], the IC50 was < 100 nM. For `CC(C)n1c(CCN2Cc3cccc(-c4ccncc4)c3C2=O)nc2ccccc21` [Example 303, 2-[2-(1-Isopropyl-1H-benzoimidazol-2-yl)-ethyl]-7-pyridin-4-yl-2,3-dihydro-isoindol-1-one trifluoroacetate], the half-inhibitory concentration (IC50) lay in the range of 100 to 200 nM.

For `O=C1c2c(N3CCC(F)(F)CC3)ccnc2CN1CCc1nc2ccccc2s1` [compound 527, 6-[2-(1,3-Benzothiazol-2-yl)ethyl]-4-(4,4-difluoro-1-piperidyl)-7H-pyrrolo[3,4-b]pyridin-5-one trifluoroacetate], the IC50 was < 100 nM. With `O=C1c2cccc(-c3ccncc3)c2CN1CCc1ccc2ccccc2n1` [Example 181, 4-Pyridin-4-yl-2-(2-quinolin-2-yl-ethyl)-2,3-dihydro-isoindol-1-one], the 50% inhibitory concentration (IC50) was < 100 nM. With `CC(C)n1c(CCN2Cc3cccc(N4CCOCC4)c3C2=O)nc2ccccc21` [Example 304, 2-[2-(1-Isopropyl-1H-benzoimidazol-2-yl)-ethyl]-7-morpholin-4-yl-2,3-dihydro-isoindol-1-one trifluoroacetate] the figure was 100 to 200 nM; with `O=C1c2c(OCCF)ccc(-c3ccncc3)c2C(=O)N1CCc1ccc2ccccc2n1` [compound 532, 4-(2-Fluoro-ethoxy)-7-pyridin-4-yl-2-(2-quinolin-2-yl-ethyl)-isoindole-1,3-dione], < 100 nM; with `O=C1c2c(cccc2N2CCOCC2)CN1CCc1cc(Cl)c2ccccc2n1` [Example 117, 2-[2-(4-Chloro-quinolin-2-yl)-ethyl]-7-morpholin-4-yl-2,3-dihydro-isoindol-1-one trifluoroacetate], 100 to 200 nM. Under `O=C1c2c(cccc2NCc2cccnc2)CN1CCc1ccc2ccccc2n1` [Example 126, 7-[(Pyridin-3-ylmethyl)-amino]-2-(2-quinolin-2-yl-ethyl)-2,3-dihydro-isoindol-1-one] stands 200 to 500 nM. As for `O=C1c2c(cccc2-c2ccc3cc[nH]c3c2)CN1CCc1ccc2ccccc2n1` [Example 64, 7-(1H-Indol-6-yl)-2-(2-quinolin-2-yl-ethyl)-2,3-dihydro-isoindol-1-one], the IC50 is < 100 nM. Regarding `O=C1c2c(N3CCC(CF)C3)ccnc2CN1CCc1ccc2ccccc2n1` (centres unmarked) [compound 435, 4-[3-(Fluoromethyl)pyrrolidin-1-yl]-6-[2-(2-quinolyl)ethyl]-7H-pyrrolo[3,4-b]pyridin-5-one], the concentration for half-maximal inhibition (IC50) is < 100 nM. With `O=C1c2c(C3CCOC3)ccnc2CN1CCc1ccc2ccccc2n1` (centres unmarked) [Example 309, 6-(2-Quinolin-2-yl-ethyl)-4-(tetrahydro-furan-3-yl)-6,7-dihydro-pyrrolo[3,4-b]pyridin-5-one] the figure was < 100 nM.

Take `O=C1c2c(-c3ccncc3)ccc(OCF)c2CN1CCc1ccc2ccccc2n1` [Example 299, 4-Fluoromethoxy-7-pyridin-4-yl-2-(2-quinolin-2-yl-ethyl)-2,3-dihydro-isoindol-1-one]: the IC50 was < 100 nM. Regarding `Cn1c2cccc(-c3ccncc3)c2c(=O)n1CCc1ccc2ccccc2n1` [Example 17, 1-Methyl-4-(pyridin-4-yl)-2-(2-(quinolin-2-yl)ethyl)-1,2-dihydroindazol-3-one], the IC50 is < 100 nM. Under `O=C1c2c(N3CCOCC3)ccc(F)c2CN1CCc1ccc2ccccc2n1` [compound 440, 4-Fluoro-7-morpholino-2-[2-(2-quinolyl)ethyl]isoindolin-1-one] stands < 100 nM; under `O=C1c2c(cccc2-c2ccc3ncccc3c2)CN1CCc1ccc2ccccc2n1` [Example 75, 7-Quinolin-6-yl-2-(2-quinolin-2-yl-ethyl)-2,3-dihydro-isoindol-1-one], < 100 nM; under `COc1cnccc1-c1ccnc2c1C(=O)N(CCc1ccc3ccccc3n1)C2` [compound 389, 4-(3-Methoxy-4-pyridyl)-6-[2-(2-quinolyl)ethyl]-7H-pyrrolo[3,4-b]pyridin-5-one], 100 to 200 nM. Take `O=C1c2c(cccc2-c2ccc3cn[nH]c3c2)CN1CCc1ccc2ccccc2n1` [Example 97, 7-(1H-Indazol-6-yl)-2-(2-quinolin-2-yl-ethyl)-2,3-dihydro-isoindol-1-one]: the IC50 was < 100 nM. With `O=C1c2c(cccc2-c2ccc(F)cc2)CN1CCc1ccc2ccccc2n1` [Example 22, 7-(4-Fluoro-phenyl)-2-(2-quinolin-2-yl-ethyl)-2,3-dihydro-isoindol-1-one], the IC50 is < 100 nM. With `O=C1c2c(-c3ccncc3)ccc(OC(F)F)c2CN1CCc1ccc2ccccc2n1` [Example 268, 4-Difluoromethoxy-7-pyridin-4-yl-2-(2-quinolin-2-yl-ethyl)-2,3-dihydro-isoindol-1-one] the figure was < 100 nM. For the compound `COc1cncc(-c2cccc3c2CN(CCc2ccc4ccccc4n2)C3=O)n1` [Example 356, 4-(6-Methoxy-pyrazin-2-yl)-2-(2-quinolin-2-yl-ethyl)-2,3-dihydro-isoindol-1-one], the IC50 is 200 to 500 nM. As to `COc1ccc(-c2ccc(OC)c3c2C(=O)N(CCc2ccc4ccccc4n2)C3)cc1` [Example 186, 4-Methoxy-7-(4-methoxy-phenyl)-2-(2-quinolin-2-yl-ethyl)-2,3-dihydro-isoindol-1-one], the IC50 is 100 to 200 nM.

For the origin of these results see US9938269B2, “Inhibitor compounds of phosphodiesterase type 10A” (ABBVIE INC., priority 2011, dated 2018).
